For the first experiment, the system named is LA2167-ZIS zingiberene synthase. Kind of experiment: Recombinant LA2167-ZIS enzyme activity assay, soluble protein from E. coli BL21 plus isoprenoid diphosphate substrate, headspace SPME GC-MS. Type of experiment: biochemical, Solanum habrochaites. The settings on record: 10 μM substrate, 2 μg soluble protein, 30 min at 30° C., GC-MS extracted ion 93. As for the experimental part: The synthetic gene was excised from the pUC57 cloning vector by digestion with BamHI and SalI and ligated into the pHIS8 vector previously linearized by digestion with the same enzymes. Recombinant clones were transformed into E. coli BL21 cells. A 5-mL log-phase culture of E. coli BL21 cells containing the expression vector was induced by addition of IPTG to a final concentration of 0.1 mM. The induced cells were incubated with agitation at 25° C. for 16 h, and then harvested by centrifugation at 10,000 g for 15 min. The cell pellet was resuspended in 1 mL extraction buffer (50 mM HEPES pH 8, 5% glycerol, 100 mM KCl, 7.5 mM MgCl2 containing 1 mM dithiothreitol (DTT)) prior to sonication. Soluble proteins were harvested after centrifugation at 10,000 g for 20 min. The supernatant was used for subsequent enzyme assays. Two micrograms of soluble protein were mixed with 10 μM of substrate (GPP, NPP, EE-FPP or 2Z, 6Z-FPP (Echelon Biosciences Inc., Salt Lake City, Utah)) in a 2-mL glass vial. Reactions were allowed to proceed for 30 min at 30° C., and the glass vial headspace was collected with a 65 μm polydimethylsiloxane-divinylbenzene solid-phase microextraction fiber (Supelco, Bellefonte, Pa.). After 5 min of exposure at 42° C., the SPME fiber was retracted and transferred to the GC injector port for desorption at 200° C. onto the GC column for 3 min. The terpenes were separated on a DB5 column (10 m length, inner diameter and 0.25 um). The GC-MS analysis was performed as described previously […] et al. (Plant Physiol 153, 1212-1223 (2010)).
For `CC(C)=CCC/C(C)=C/COP(=O)(O)OP(=O)(O)O` [geranyl diphosphate, reference compound], the “Products synthesized by LA2167-ZIS from the supplied substrate” value is “failed to synthesize any products”.
Still for that read-out and setting: the result for `CC(C)=CCC/C(C)=C\COP(=O)(O)OP(=O)(O)O` [neryl diphosphate, reference compound] reads “failed to synthesize any products”; that for `CC(C)=CCC/C(C)=C\CC/C(C)=C\COP(=O)(O)OP(=O)(O)O` [2Z,6Z-farnesyl diphosphate, (2Z,6Z)-farnesyl diphosphate, reference compound], “zingiberene peak at about 4.65 is only observed”.

Staying with this experiment, now noted: substrate 2Z,6Z-Farnesyl diphosphate; SEQ ID NO:3 in pHIS8, E. coli BL21 DE3; GC-MS.
For `C=C1C=CC(C(C)CCC=C(C)C)CC1` (stereo not drawn) [Sesquiphellandrene beta], the “Peak Area % of products synthesized by recombinant LA2167-ZIS” value (shortened to “Peak Area % of products synthesized”) was found to be 0.567%.
On to `CC(C)=CCCC(C)c1ccc(C)cc1` (stereo not drawn) [AR-curcumene], for which the “Peak Area % of products synthesized” value is 0.986%.
For `C=C(C)C(CO)C/C=C(/C)CCC=C(C)C` (stereo not drawn) [Sesquilavandulol <Z>], the “Peak Area % of products synthesized” value is reported as 0.228%.
Same read-out and setting: the result for bergamotene reads 0.273%; that for `C=C(CCC=C(C)C)[C@@H]1CC=C(C)CC1` [Bisabolene beta], 0.107%.
With zingiberene, the “Peak Area % of products synthesized” value stood at 97.839%.
